Data taken from PMC10716921 (Frontiers in Pharmacology, 2023).
Read-outs that look alike come from different tables or passages of the source.

Experiments:
[1] = in vivo, iv; cited from earlier work
Source text: (§1) Platelet-derived growth factor BB (PDGF-BB), one of the first growth factors released into the wound, plays a crucial role in the wound healing process. It is responsible for the formation of granulation tissue, production of extracellular matrix (ECM), takes part in the recruitment of mesenchymal stromal cells (MSCs), and stimulates the proliferation of fibroblasts ([White et al., 2021]). In 1997, the FDA approved human recombinant PDGF-BB in sodium carboxy-methylcellulose (NaCMC) hydrogel (Regranex®) for the treatment of DFUs ([Reyes-Martínez et al., 2019]). However, because of the high cos ...

[2] = system: human neutrophil elastase; assay: human neutrophil elastase enzyme (EC No. 3.4.21.37, Sigma Aldrich, USA) in 25 mM Tris HCl buffer, pH 7.5; details: 37°C, up to 30 min
skin cells = details: cited from earlier work
Source text: Platelet-derived growth factor BB (PDGF-BB), one of the first growth factors released into the wound, plays a crucial role in the wound healing process. It is responsible for the formation of granulation tissue, production of extracellular matrix (ECM), takes part in the recruitment of mesenchymal stromal cells (MSCs), and stimulates the proliferation of fibroblasts ([White et al., 2021]). In 1997, the FDA approved human recombinant PDGF-BB in sodium carboxy-methylcellulose (NaCMC) hydrogel (Regranex®) for the treatment of DFUs ([Reyes-Martínez et al., 2019]). However, because of the high cos ... || During the development of new biomaterials, it is crucial to analyze not only their physicochemical properties and activity but also their biocompatibility and potential risk to human cells and tissues ([Schmalz and […], 2017]). That is why we decided to evaluate the cytotoxicity of RADA-PDGF2 and its effect on immune cells. Based on our experience and literature data, we know that peptides can be cytotoxic to human cells ([Greco et al., 2020]). […] However, RADA- ...

[3] = system: lymphocytes and basophils; details: cited from earlier work
Source text: as §1

mice = details: applied topically in 18% P407 hydrogel, mice model; ref Deptuła et al., 2020; cited from earlier work
Source text: as §1

[4] = system: human skin cells, especially keratinocytes; details: ref Deptuła et al., 2020; cited from earlier work
Source text: as §1

[5] = system: human peripheral blood mononuclear cells (PBMCs); assay: Immunological analysis: activation of immune cells by flow cytometry; format: cell-based
Experimental: The analysis of the effect on immune cells in vitro was performed with human peripheral blood mononuclear cells (PBMCs) isolated from “buffy coats” using a Ficoll density gradient (Histopaque, Sigma-Aldrich Co.). The procedure was approved by the Independent Bioethics Commission for Research of the Medical University of Gdańsk (NKBBN/387/2014). 100 ul of 1% RADA-PDGF2 was placed in a 24-well plate. Then, culture inserts with a pore diameter of 0.4 μm were placed in the wells, and cells were seeded into them in the amount of 0.5 million cells/0.5 mL RPMI 1640 (P/S, 10% FBS)/well. This was then supplemented with medium alone to a final volume of 1 mL/well. Cells were incubated in standard conditions for 24 h. The negative control was unstimulated cells, grown in the insert, in a well without gels. RADA16-I constituted an additional control. After the incubation, cells were harvested, washed in PBS, counted, and prepared for cytometric analysis. 100,000 cells/100 µL were stained with fluorochrome-conjugated monoclonal antibodies (anti-CD3, anti-CD4, anti-CD8, anti-CD16, anti-CD56, anti-CD25, anti-CD69, anti-CD71, anti-HLA-DR, anti-CD11c, anti-CD80, and anti-CD83). Following 30 min of incubation at room temperature (RT) in the dark, the cells were analyzed using a flow cytometer (LSRFortessa, BD).

[6] = format: physicochemical
Experimental: Blood samples provided by healthy volunteers were processed with lithium/heparin tubes to eliminate clots by centrifugation. Plasma aliquots were mixed with RADA-PDGF2 peptide for 24 h at 37°C, using a plasma to peptide volume ratio of (4:1% v/v), to obtain final concentration 2.69 µM of RADA-PDGF2 peptide.). Samples were collected at six time points (0, 1, 2, 3, 6, and 24 h) to assess water and plasma stability. The collected samples were then prepared and analyzed according to the protocol described earlier ([Dzierżyńska et al., 2023]).

[7] = system: dermal fibroblast, 46BR.1N fibroblast, and HaCaT keratinocytes; format: cell-based, human
Experimental: Cell viability of dermal fibroblast, 46BR.1N fibroblast, and HaCaT keratinocytes was analyzed after 4 days of cell culture on RADA-PDGF2 hydrogel. RADA-PDGF2 was dissolved in water at a concentration of 1% w/v and placed in the inserts (0.4 µm) located in a 24-well plate. The whole was incubated for at least 1 hour at 37°C to allow gelation. Then, twice the volume of DMEM HG medium was added to the gel and left overnight in the incubator. The cells were trypsinized, centrifuge and then seeded on a gel at 50,000 per insert in DMEM HG medium with 2% FBS and 1% P/S. The medium was changed to DMEM HG with 2% FBS and 1% P/S after 2 days of incubation. After 4 days of incubation to assess viability, cells were stained with Calcein-AM (c = 8 µM) and propidium iodide (2 μg/mL) for 30 min and then analyzed by confocal microscopy with the use of Nikon Eclipse Ti-e Confocal Microscope.

[8] = previous stability studies; ref Dzierżyńska et al., 2023; cited from earlier work

## PDGF-BB: Platelet-derived growth factor BB
[1]
  half-life: a few minutes

## Ac-(RADA)4GGGAAPVGGGRLIDRTNANFL-NH2
[2]
  cleaved bond: V23-G24, major

## RLIDRTNANFL [PDGF2, peptide … derived from PDGF-BB]
Skin cells
  cytotoxicity: minimal cytotoxicity
[3]
  immunogenicity in vitro: negligible lymphocyte and basophil activation
mice
  effect on wound healing: accelerates wound healing
[4]
  pro-proliferative properties: strong pro-proliferative properties

## CC[C@H](C)[C@H](NC(=O)[C@H](CC(C)C)NC(=O)[C@H](CCCNC(=N)N)NC(=O)CNC(=O)CNC(=O)CNC(=O)[C@@H](NC(=O)[C@@H]1CCCN1C(=O)[C@H](C)NC(=O)[C@H](C)NC(=O)CNC(=O)CNC(=O)CNC(=O)[C@H](C)NC(=O)[C@H](CC(=O)O)NC(=O)[C@H](C)NC(=O)[C@H](CCCNC(=N)N)NC(=O)[C@H](C)NC(=O)[C@H](CC(=O)O)NC(=O)[C@H](C)NC(=O)[C@H](CCCNC(=N)N)NC(=O)[C@H](C)NC(=O)[C@H](CC(=O)O)NC(=O)[C@H](C)NC(=O)[C@H](CCCNC(=N)N)NC(=O)[C@H](C)NC(=O)[C@H](CC(=O)O)NC(=O)[C@H](C)NC(=O)[C@H](CCCNC(=N)N)NC(C)=O)C(C)C)C(=O)N[C@@H](CC(=O)O)C(=O)N[C@@H](CCCNC(=N)N)C(=O)N[C@H](C(=O)N[C@@H](CC(N)=O)C(=O)N[C@@H](C)C(=O)N[C@@H](CC(N)=O)C(=O)N[C@@H](Cc1ccccc1)C(=O)N[C@@H](CC(C)C)C(N)=O)[C@@H](C)O [RADA-PDGF2]
[5]
  CD11c+CD83+ active DCs population compared to untreated control: statistically significant increase
  NK cells: expression of CD25: slight increase
  NK cells: expression of CD71: reduction
  NK cells: statistical significance of change in activation markers: no statistical significance was noted
  Th cells: expression of activation markers versus unstimulated cells: any statistically significant differences between unstimulated cells and cells stimulated with RADA-PDGF2 were not observed
  cytotoxic lymphocytes (CTL): expression of CD69 marker: increased expression
  overall immunological assessment: safe in an immunological context
[6]
  time over which the peptide exhibited chemical stability in aqueous solution: 24 h
[7]
  skin cell viability on hydrogel: remained viable

## CC(=O)N[C@@H](CCCNC(=N)N)C(=O)N[C@@H](C)C(=O)N[C@@H](CC(=O)O)C(=O)N[C@@H](C)C(=O)N[C@@H](CCCNC(=N)N)C(=O)N[C@@H](C)C(=O)N[C@@H](CC(=O)O)C(=O)N[C@@H](C)C(=O)N[C@@H](CCCNC(=N)N)C(=O)N[C@@H](C)C(=O)N[C@@H](CC(=O)O)C(=O)N[C@@H](C)C(=O)N[C@@H](CCCNC(=N)N)C(=O)N[C@@H](C)C(=O)N[C@@H](CC(=O)O)C(=O)N[C@@H](C)C(N)=O [RADA16-I, reference compound]
[5]; PBMCs, 24 h, due to the low values of the changes
  overall immunological assessment: safe in an immunological context
[8]
  presence of peptide in plasma: did not show prolonged presence of peptide in plasma
